# Data: ChEMBL document CHEMBL1811872, “Tryptophan 2,3-dioxygenase (TDO) inhibitors. 3-(2-(pyridyl)ethenyl)indoles as potential anticancer immunomodulators” (J Med Chem, 2011)
# Activity calls are given as the source filed them. The calls are words filed in the database; no cut-off is given here.
# Key:
# [1] = biological target: Melatonin receptor type 1A (Homo sapiens) (UniProt P48039); test: Displacement of [125I]2-iodomelatonin from human MT1 receptor at 10 uM relative to control
# [2] = biological target: 5-hydroxytryptamine receptor 2A (Homo sapiens) (UniProt P28223); test: Displacement of [3H]ketanserin from human 5HT2A receptor at 10 uM relative to control
# [3] = Displacement of [3H]prazosin from adrenergic alpha1 receptor at 10 uM relative to control
# [4] = biological target: Beta-2 adrenergic receptor (Homo sapiens) (UniProt P07550); test: Displacement of [3H](-)-CGP12177 from human adrenergic beta2 receptor at 10 uM relative to control
# [5] = biological target: 5-hydroxytryptamine receptor 7 (Homo sapiens) (UniProt P34969); test: Displacement of [3H]LSD from human 5HT7 receptor at 10 uM relative to control
# [6] = biological target: 5-hydroxytryptamine receptor 6 (Homo sapiens) (UniProt P50406); test: Displacement of [3H]LSD from human 5HT6 receptor at 10 uM relative to control
# [7] = biological target: Sodium-dependent dopamine transporter (Homo sapiens) (UniProt Q01959); test: Displacement of [3H]BTCP from human DA transporter at 10 uM relative to control
# [8] = Displacement of [3H]RX821002 from adrenergic alpha2 receptor at 10 uM relative to control
# [9] = biological target: Indoleamine 2,3-dioxygenase 1 (Homo sapiens) (UniProt P14902); test: Inhibition of IDO at 10 uM
# [10] = biological target: 5-hydroxytryptamine receptor 5A (Homo sapiens) (UniProt P47898); test: Displacement of [3H]LSD from human 5HT5A receptor at 10 uM relative to control
# [11] = biological target: T1, 5-hydroxytryptamine receptor 1A (Homo sapiens) (UniProt P08908); test: Displacement of [3H]8-OH-DPAT from human 5HT1A receptor at 10 uM relative to control
# T1 sequence (whole entry): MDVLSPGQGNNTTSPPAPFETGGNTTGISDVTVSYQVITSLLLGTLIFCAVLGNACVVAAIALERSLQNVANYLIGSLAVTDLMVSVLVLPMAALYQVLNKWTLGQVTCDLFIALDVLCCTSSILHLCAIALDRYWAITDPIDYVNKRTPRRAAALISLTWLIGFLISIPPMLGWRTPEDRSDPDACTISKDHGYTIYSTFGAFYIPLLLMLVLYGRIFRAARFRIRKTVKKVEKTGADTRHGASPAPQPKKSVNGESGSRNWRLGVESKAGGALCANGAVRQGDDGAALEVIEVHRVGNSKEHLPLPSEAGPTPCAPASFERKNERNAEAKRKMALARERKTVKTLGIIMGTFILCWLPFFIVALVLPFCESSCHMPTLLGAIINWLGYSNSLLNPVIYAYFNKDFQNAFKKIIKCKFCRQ
# [12] = biological target: Beta-1 adrenergic receptor (Homo sapiens) (UniProt P08588); test: Displacement of [3H](-)-CGP12177 from human adrenergic beta1 receptor at 10 uM relative to control
# [13] = biological target: 5-hydroxytryptamine receptor 1B (Homo sapiens) (UniProt P28222); test: Displacement of [125I]CYP from human 5HT1B receptor at 10 uM relative to control
# [14] = biological target: T2, 5-hydroxytryptamine receptor 3A (Homo sapiens) (UniProt P46098); test: Displacement of [3H]BRL43694 from human 5HT3 receptor at 10 uM relative to control
# T2 sequence (whole entry): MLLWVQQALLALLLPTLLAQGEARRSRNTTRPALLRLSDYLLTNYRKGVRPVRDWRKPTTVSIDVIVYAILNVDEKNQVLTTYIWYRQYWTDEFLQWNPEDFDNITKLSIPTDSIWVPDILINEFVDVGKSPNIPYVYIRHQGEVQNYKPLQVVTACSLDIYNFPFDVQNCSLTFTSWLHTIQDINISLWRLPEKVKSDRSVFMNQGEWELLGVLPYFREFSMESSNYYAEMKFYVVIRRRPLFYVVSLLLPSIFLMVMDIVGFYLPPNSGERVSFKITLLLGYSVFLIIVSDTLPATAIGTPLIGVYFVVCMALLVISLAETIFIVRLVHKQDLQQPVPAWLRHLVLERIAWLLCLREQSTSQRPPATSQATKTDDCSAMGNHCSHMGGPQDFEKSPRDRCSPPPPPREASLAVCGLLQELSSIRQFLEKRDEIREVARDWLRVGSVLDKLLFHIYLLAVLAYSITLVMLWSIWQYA
# [15] = biological target: D(1A) dopamine receptor (Homo sapiens) (UniProt P21728); test: Displacement of [3H]SCH23390 from human dopamine D1 receptor at 10 uM relative to control
# [16] = biological target: D(2) dopamine receptor (Homo sapiens) (UniProt P14416); test: Displacement of [3H]methyl-spiperone from human dopamine D2s receptor at 10 uM relative to control
# [17] = biological target: 5-hydroxytryptamine receptor 2B (Homo sapiens) (UniProt P41595); test: Displacement of [125I](+/-)-DOI from human 5HT2B receptor at 10 uM relative to control
# P815B = test: Antitumor activity against mouse P815B cells expressing TDO xenografted in immunized mouse assessed as tumor growth inhibition at 160 mg/kg/day, po administered with water; format: functional, organism-based
# [18] = biological target: Sodium-dependent serotonin transporter (Homo sapiens) (UniProt P31645); test: Displacement of [3H]imipramine from human 5HT transporter at 10 uM relative to control
# [19] = biological target: Sodium-dependent noradrenaline transporter (Homo sapiens) (UniProt P23975); test: Displacement of [3H]nisoxetine from human NE transporter at 10 uM relative to control
# Sodium-dependent noradrenaline transporter (Homo sapiens), sequence (P23975 whole entry): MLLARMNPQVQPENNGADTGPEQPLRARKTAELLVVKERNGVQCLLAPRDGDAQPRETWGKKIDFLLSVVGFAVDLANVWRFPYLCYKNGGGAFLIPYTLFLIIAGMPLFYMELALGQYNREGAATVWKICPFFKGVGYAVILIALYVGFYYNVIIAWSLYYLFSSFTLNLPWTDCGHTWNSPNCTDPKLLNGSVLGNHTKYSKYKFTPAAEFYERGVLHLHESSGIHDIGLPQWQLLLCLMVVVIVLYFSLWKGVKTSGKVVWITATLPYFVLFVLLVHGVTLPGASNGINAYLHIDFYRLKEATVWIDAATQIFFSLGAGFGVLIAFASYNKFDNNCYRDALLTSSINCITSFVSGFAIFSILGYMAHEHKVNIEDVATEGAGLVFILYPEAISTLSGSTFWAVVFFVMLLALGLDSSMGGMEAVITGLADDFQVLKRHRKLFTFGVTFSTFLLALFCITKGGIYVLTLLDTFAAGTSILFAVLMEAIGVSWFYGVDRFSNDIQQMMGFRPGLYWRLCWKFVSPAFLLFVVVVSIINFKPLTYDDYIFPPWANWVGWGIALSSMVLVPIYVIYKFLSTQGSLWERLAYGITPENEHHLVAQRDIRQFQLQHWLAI
# D(1A) dopamine receptor (Homo sapiens), sequence (P21728 whole entry): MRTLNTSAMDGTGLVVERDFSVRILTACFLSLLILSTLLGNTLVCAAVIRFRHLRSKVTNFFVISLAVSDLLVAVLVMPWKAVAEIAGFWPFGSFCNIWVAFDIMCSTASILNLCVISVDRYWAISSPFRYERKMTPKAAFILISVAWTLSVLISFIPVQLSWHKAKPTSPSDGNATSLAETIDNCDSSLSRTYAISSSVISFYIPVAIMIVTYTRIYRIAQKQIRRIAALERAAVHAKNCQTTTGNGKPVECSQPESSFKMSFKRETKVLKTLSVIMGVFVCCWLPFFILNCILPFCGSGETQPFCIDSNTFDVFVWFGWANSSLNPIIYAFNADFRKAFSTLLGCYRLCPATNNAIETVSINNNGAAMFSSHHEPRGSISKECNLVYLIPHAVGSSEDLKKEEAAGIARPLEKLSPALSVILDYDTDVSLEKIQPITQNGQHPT
# Beta-1 adrenergic receptor (Homo sapiens), sequence (P08588 whole entry, looked up): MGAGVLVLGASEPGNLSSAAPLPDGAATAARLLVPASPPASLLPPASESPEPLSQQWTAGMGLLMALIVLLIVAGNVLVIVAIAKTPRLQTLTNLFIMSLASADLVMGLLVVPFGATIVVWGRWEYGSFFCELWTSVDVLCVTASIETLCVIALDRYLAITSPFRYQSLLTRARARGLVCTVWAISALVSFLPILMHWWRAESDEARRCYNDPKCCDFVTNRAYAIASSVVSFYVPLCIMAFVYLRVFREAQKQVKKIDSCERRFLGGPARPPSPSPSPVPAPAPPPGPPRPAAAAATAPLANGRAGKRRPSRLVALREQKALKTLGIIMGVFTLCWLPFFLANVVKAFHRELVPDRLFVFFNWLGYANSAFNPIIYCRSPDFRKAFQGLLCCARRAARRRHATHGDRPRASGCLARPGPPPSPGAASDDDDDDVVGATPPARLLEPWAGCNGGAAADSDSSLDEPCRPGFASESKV
# Beta-2 adrenergic receptor (Homo sapiens), sequence (P07550 whole entry, looked up): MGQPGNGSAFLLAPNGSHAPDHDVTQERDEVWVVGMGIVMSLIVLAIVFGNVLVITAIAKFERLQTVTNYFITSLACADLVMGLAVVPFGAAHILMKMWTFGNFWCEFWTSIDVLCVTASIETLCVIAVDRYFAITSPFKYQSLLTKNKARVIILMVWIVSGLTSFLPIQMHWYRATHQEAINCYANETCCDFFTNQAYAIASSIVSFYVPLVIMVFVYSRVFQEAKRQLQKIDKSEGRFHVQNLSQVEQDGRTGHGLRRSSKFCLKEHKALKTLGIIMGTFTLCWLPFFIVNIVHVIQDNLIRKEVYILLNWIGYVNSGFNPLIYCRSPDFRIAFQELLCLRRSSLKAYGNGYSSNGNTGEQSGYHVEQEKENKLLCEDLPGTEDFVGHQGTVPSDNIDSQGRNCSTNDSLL
# Melatonin receptor type 1A (Homo sapiens), sequence (P48039 whole entry): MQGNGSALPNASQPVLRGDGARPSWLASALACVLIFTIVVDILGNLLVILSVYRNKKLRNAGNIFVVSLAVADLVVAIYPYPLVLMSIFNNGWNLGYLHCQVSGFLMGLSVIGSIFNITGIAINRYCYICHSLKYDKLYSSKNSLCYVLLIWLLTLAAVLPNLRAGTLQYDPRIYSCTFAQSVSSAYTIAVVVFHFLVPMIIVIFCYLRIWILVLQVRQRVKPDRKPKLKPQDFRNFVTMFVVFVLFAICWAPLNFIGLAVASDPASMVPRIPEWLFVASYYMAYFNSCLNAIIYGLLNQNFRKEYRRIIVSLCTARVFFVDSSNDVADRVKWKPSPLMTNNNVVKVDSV
# Sodium-dependent serotonin transporter (Homo sapiens), sequence (P31645 whole entry, looked up): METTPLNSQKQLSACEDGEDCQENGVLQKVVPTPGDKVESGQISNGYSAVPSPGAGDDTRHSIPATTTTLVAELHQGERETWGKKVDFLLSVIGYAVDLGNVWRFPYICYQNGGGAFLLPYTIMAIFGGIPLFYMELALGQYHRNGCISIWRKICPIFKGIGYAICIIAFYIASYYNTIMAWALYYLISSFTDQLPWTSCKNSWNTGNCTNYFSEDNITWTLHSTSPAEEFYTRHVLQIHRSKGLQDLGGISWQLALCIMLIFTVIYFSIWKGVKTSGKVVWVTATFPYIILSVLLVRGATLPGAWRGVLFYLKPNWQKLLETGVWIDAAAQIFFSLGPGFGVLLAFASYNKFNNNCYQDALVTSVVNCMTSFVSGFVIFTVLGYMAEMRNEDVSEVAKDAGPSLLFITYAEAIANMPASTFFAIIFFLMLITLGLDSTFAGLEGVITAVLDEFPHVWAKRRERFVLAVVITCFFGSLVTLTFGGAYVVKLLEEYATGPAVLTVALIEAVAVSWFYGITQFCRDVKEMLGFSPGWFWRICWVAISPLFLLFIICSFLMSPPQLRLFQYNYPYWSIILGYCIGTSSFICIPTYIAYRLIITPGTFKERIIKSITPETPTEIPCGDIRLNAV
# 5-hydroxytryptamine receptor 2B (Homo sapiens), sequence (P41595 whole entry): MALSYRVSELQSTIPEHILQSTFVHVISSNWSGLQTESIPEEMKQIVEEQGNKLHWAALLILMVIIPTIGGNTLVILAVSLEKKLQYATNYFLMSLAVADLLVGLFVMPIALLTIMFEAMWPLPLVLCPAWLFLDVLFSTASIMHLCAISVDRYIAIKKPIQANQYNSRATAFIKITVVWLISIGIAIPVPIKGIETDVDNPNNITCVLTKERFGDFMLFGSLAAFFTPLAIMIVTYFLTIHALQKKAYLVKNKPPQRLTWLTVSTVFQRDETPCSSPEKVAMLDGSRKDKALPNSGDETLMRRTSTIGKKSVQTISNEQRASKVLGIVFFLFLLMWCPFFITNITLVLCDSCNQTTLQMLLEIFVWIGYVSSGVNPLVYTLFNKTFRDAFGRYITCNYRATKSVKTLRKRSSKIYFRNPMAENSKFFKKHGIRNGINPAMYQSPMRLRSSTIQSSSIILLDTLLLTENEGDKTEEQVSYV
# Sodium-dependent dopamine transporter (Homo sapiens), sequence (Q01959 whole entry): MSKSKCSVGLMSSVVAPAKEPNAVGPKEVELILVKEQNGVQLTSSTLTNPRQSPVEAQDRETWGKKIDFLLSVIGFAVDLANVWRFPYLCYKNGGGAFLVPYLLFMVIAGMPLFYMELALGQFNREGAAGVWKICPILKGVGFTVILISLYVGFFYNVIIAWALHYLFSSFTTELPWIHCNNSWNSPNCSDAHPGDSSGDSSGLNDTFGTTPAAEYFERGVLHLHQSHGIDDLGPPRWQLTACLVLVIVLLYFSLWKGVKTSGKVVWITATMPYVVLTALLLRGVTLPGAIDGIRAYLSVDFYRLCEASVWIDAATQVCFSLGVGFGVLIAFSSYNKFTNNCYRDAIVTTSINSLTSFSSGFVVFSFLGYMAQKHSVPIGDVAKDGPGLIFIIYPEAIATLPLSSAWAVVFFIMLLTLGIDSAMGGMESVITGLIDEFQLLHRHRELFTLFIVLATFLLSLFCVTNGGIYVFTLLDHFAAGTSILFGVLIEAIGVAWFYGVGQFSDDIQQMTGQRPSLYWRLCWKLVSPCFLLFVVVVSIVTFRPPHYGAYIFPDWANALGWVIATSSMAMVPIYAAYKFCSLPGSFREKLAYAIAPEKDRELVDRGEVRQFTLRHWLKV
# 5-hydroxytryptamine receptor 5A (Homo sapiens), sequence (P47898 whole entry): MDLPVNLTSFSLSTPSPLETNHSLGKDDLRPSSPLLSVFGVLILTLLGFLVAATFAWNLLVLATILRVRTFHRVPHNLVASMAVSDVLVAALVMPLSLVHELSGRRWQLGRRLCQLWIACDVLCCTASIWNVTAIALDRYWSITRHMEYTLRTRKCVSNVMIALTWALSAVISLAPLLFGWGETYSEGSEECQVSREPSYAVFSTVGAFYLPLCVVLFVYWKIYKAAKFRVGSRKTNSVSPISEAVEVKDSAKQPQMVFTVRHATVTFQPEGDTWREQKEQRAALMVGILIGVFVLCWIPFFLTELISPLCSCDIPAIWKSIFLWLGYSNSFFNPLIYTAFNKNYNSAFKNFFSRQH
# 5-hydroxytryptamine receptor 7 (Homo sapiens), sequence (P34969 whole entry): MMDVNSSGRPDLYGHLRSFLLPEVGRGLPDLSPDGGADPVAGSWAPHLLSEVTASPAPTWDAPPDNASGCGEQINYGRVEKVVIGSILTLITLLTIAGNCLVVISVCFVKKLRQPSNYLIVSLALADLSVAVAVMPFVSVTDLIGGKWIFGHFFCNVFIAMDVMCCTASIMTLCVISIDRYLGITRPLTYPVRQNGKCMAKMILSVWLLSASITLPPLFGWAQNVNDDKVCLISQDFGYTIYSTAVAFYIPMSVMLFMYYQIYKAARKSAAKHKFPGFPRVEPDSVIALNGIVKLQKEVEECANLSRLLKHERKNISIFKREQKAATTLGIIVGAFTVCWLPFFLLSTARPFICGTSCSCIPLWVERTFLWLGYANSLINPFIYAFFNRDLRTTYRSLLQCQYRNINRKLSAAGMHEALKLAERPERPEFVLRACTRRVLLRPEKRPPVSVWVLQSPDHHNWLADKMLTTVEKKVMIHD
smiles,measurement,setting,value
Fc1ccc2c(/C=C/c3nnn[nH]3)c[nH]c2c1,inhibition,[1],< 10%
same,inhibition,[2],< 10%
same,inhibition,[3],< 10%
same,inhibition,[4],< 10%
same,inhibition,[5],< 10%
same,inhibition,[6],< 10%
same,inhibition,[7],< 10%
same,inhibition,[8],< 10%
same,inhibition,[9],< 10%
same,inhibition,[10],< 10%
same,inhibition,[11],< 10%
same,inhibition,[12],14%
same,inhibition,[13],< 10%
same,inhibition,[14],< 10%
same,inhibition,[15],< 10%
same,inhibition,[16],< 10%
same,inhibition,[17],< 10%
same,Activity,P815B,Active
same,inhibition,[18],26%
same,inhibition,[19],< 10%
